{"source": "patent US11773096B2", "about": "“Small-molecule PI5P4K alpha/beta inhibitors and methods of treatment using same” (YALE UNIVERSITY, priority 2018, dated 2023)", "key": {"NEK11": {"target": "NEK11 (Homo sapiens, UniProt Q8NG66)", "sequence (Q8NG66 whole entry)": "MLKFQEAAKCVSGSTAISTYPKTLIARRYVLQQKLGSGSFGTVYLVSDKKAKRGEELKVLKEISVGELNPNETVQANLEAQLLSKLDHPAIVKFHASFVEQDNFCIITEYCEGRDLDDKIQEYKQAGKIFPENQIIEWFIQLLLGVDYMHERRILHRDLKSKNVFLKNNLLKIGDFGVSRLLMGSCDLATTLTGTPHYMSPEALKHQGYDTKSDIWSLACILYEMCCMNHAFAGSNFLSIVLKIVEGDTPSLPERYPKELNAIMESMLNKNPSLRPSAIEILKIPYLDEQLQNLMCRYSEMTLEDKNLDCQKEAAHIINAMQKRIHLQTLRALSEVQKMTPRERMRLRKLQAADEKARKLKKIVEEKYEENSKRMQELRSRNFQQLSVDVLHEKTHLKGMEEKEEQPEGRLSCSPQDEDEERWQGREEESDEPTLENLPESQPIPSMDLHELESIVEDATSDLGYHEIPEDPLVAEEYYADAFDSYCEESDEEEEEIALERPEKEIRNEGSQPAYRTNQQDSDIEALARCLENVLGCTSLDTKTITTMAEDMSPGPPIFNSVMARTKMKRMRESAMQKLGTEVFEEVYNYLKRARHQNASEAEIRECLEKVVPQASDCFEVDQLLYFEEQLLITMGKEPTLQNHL", "assay": "HotSpot protein kinase panel", "conditions": "read-out: NEK11 activity remaining"}, "Plk1": {"target": "Plk1 (Homo sapiens, UniProt P53350)", "assay": "HotSpot protein kinase panel", "conditions": "read-out: Plk1 activity remaining", "description": "(§2) In both titrations, the ATP concentration was fixed at 50 μM. The assay kits for Plk1 and RSK2 were obtained from Promega (Madison, Wis.), which use ADP-Glo™ for activity detection."}, "RSK2": {"target": "RSK2 (Homo sapiens, UniProt P51812)", "sequence (P51812 whole entry)": "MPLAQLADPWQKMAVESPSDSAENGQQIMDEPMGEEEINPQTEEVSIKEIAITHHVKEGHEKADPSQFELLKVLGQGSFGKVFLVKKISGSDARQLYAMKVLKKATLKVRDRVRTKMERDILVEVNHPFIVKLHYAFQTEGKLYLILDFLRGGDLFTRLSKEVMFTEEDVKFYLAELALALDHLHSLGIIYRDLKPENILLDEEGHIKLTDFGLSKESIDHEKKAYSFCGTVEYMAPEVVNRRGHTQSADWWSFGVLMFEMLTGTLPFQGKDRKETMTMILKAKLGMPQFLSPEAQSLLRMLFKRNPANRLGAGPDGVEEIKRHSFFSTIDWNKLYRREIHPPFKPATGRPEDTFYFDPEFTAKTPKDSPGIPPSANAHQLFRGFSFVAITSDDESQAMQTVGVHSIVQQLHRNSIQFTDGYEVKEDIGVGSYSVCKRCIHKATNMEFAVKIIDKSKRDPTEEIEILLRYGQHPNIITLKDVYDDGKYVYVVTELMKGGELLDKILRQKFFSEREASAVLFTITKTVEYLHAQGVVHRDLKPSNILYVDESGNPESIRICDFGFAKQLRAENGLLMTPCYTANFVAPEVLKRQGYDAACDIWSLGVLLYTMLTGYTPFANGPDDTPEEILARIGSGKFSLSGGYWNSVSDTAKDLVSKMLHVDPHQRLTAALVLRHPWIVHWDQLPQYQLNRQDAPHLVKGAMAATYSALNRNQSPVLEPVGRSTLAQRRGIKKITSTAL", "assay": "RSK2 kinase assay kit (Promega, ADP-Glo)", "excerpt": "(§3) The assay kits for Plk1 and RSK2 were obtained from Promega (Madison, Wis.), which use ADP-Glo™ for activity detection."}, "C2Cl2 myotubes": {"tested_on": "C2Cl2 myotubes", "assay": "Adenine nucleotides measurement in myotubes (luminescent ATP kit, HPLC, LC-MS/MS)", "type": "cell-based, mouse", "description": "C2Cl2 cells were plated and differentiated on the same type of plates. After treatment with compound overnight, total cellular ATP levels were measured by a luminescent ATP detection assay kit (Abcam) following manufacturer's protocol and normalized against the total protein concentration.\nTo measure nucleotide concentration using HPLC or LC-MS/MS, cells were rinsed three times with DPBS buffer at room temperature and lysed in ice-cold 0.4M perchloric acid (500 μl acid per 10^6 cells). The culture dishes were sealed and transferred to a −80° C. freezer. Cell lysates were then thawed on ice, scraped off, and centrifuged at 14,000 rpm at 4° C. for 10 min. The pellet was solubilized in 0.2M NaOH and set aside for measurement of protein concentration. The supernatant was transferred to clean tubes and neutralized with 3M KHCO3. The neutralized sample was kept on ice for 10 min and then transferred to a −80° C. freezer. After 2 hrs, thawed sample was centrifuged again to remove the precipitated perchlorate, filtered, adjusted according to protein concentration, aliquoted and stored at −80° C. The sample was thawed on ice just before the HPLC or LC-MS/MS experiment. […] The nucleotides were separated using 20 mM ammonium acetate in water (solvent A) and 5% acetonitrile in water buffered with 20 mM ammonium acetate (solvent B), which were both adjusted with ammonium hydroxide to pH 9.0. The flow rate was 0.7 mL/min, and the column temperature was maintained at 35° C. The gradient elution program was: 0-2 min, 0-5% B; 2-12 min, 5-10% B; 12-22 min, 10-20% B; 22-25 min, 20-100% B; 25-30 min, 100% B, and then back to 100% A for 1 min, which was maintained for another 9 min to recondition the column. Mass spectrometric ESI ionization was performed in the negative ion mode and the source parameters were set as follows: gas temperature, 200° C.; gas flow, 12 L/min; nebulizer pressure, 35 psi; sheath gas temperature, 200° C.; sheath gas flow, 12 L/min; capillary voltage, −4,000V; fragmentor voltage, 380V."}, "myotubes": {"tested_on": "myotubes", "assay": "Glucose consumption and lactate production in myotube culture media", "type": "cell-based", "protocol": "To measure glucose consumption and lactate production, a total of 1×10^5 cells were seeded into each well of a 12-well plate and cultured in the presence of compound for 48 hrs. The culture media were collected and deproteinized by centrifugation using an Amicon Ultra centrifugal filter (3 kDa cut-off), while cells were lysed and used for protein concentration determination by BCA assay. The media were assayed immediately for glucose and lactate levels using colorimetric assay kits from BioVision following the manufacturer's protocols. The values were normalized against protein concentration. All measurements were made in triplicate."}, "L6 myotubes": {"tested_on": "L6 myotubes", "assay": "2-deoxyglucose uptake", "type": "cell-based, rat", "conditions": "overnight treatment with 20 μM 7a or 1 mM metformin", "protocol": "To measure 2-deoxyglucose (2-DG) uptake, L6 myotubes were treated with compound or DMSO control overnight in the absence of serum in α-MEM. Following treatment, cells were washed twice with KRH buffer (50 mM HEPES pH 7.4, 137 mM NaCl, 4.7 mM KCl, 1.85 mM CaCl2, 1.3 mM MgSO4) containing 0.1% BSA. Residual wash buffer was removed by aspiration. Cells were then incubated for 10 min at 37° C. in a KRH buffer containing 0.1% BSA, 5 mM unlabeled 2-DG and 2 μCi/ml [1,2-^3H(N)]-2-deoxy-D-glucose (PerkinElmer). The uptake was terminated by washing four times with ice-cold KRH buffer containing 0.1% BSA. Nonspecific 2-DG uptake into cells was determined in the presence of 10 μM cytochalasin B, which inhibits glucose transporters, and subtracted. The cells were lysed with 0.05 M NaOH for 2 hrs at 37° C. 10 μl cell lysate was used to quantify protein concentration by BCA assay. The remaining sample was transferred to a scintillation vial containing 3 ml Opti-Fluor liquid scintillation cocktail (PerkinElmer), and radioactivity was determined using a Beckman Coulter LS 6500 scintillation system and normalized against protein concentration."}, "MCF10A p53(−/−) cells [1]": {"tested_on": "MCF10A p53(−/−) cells", "assay": "Growth of isogenic MCF10A cells, p53(−/−)", "type": "cell-based"}, "PI3Kδ": {"target": "PI3Kδ (Homo sapiens, UniProt O00329)", "assay": "Lipid kinase panel (ADP-Glo)", "description": "In both titrations, the ATP concentration was fixed at 50 μM."}, "Vps34": {"target": "Vps34 (Homo sapiens, UniProt Q8NEB9)", "sequence (Q8NEB9 whole entry, species assumed)": "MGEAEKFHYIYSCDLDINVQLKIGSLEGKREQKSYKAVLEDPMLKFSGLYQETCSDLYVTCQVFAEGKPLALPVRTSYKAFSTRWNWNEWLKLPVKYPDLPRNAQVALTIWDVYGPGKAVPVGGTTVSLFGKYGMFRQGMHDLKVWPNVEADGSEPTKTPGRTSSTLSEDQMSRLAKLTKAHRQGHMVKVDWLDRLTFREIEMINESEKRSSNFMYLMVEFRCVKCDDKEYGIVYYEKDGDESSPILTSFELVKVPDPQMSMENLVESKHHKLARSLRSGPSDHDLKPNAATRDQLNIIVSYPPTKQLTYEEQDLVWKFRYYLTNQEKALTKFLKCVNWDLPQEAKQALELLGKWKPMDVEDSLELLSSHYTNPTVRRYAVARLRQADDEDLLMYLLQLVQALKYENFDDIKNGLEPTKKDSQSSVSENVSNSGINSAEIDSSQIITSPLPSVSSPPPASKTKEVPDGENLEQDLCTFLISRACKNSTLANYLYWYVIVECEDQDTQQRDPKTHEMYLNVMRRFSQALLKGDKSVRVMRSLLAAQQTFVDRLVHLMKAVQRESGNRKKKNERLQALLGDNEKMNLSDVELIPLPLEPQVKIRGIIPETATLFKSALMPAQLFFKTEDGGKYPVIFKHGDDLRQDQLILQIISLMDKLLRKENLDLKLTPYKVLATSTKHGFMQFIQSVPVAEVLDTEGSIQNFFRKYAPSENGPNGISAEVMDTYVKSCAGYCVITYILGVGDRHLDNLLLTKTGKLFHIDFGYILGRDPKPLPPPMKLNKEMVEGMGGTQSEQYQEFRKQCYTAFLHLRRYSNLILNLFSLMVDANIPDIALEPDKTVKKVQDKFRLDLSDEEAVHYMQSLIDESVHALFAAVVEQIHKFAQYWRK", "assay": "In vitro lipid kinase profiling"}, "TNIK": {"target": "TNIK (Homo sapiens, UniProt Q9UKE5)", "sequence (Q9UKE5 whole entry)": "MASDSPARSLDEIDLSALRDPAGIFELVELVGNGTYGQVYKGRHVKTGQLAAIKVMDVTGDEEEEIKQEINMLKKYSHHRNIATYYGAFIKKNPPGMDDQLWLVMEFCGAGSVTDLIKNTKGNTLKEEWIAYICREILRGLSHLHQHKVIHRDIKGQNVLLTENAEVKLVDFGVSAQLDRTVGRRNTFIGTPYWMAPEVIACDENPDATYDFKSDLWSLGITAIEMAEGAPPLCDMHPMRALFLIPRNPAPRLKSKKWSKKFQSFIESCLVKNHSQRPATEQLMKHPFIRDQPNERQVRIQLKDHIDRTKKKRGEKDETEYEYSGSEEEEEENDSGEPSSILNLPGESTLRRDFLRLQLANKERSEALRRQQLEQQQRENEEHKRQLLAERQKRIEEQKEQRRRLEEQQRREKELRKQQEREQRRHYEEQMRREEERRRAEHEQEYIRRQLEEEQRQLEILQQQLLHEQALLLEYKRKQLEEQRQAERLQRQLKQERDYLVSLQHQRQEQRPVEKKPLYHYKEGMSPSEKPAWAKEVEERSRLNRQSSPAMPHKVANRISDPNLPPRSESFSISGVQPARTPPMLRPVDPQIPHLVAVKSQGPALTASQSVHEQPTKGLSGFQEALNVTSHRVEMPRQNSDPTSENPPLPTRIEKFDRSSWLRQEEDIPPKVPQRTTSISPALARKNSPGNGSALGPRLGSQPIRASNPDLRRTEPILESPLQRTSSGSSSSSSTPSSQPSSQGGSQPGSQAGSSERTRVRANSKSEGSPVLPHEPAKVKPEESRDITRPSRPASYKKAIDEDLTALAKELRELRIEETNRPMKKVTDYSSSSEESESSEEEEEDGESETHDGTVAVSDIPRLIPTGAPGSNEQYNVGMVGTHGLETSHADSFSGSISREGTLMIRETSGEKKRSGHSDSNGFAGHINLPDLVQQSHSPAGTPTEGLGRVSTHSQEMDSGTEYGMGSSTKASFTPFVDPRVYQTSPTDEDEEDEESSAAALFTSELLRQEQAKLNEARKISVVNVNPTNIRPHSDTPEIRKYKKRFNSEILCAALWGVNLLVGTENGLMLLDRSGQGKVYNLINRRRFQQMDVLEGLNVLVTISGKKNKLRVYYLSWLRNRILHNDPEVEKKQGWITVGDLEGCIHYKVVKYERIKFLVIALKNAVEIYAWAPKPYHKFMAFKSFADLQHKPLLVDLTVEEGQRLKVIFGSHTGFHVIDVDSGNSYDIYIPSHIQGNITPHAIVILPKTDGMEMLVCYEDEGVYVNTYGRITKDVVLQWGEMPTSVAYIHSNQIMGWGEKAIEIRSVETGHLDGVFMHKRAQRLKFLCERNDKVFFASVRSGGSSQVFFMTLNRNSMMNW", "assay": "HotSpot protein kinase panel", "conditions": "read-out: TNIK activity remaining", "description": "as §2"}, "EIF2AK3": {"target": "EIF2AK3 (Homo sapiens, UniProt Q9NZJ5)", "assay": "HotSpot protein kinase panel", "conditions": "read-out: EIF2AK3 activity remaining"}, "BT474 cells [2]": {"tested_on": "BT474 cells", "assay": "Immunoblot analysis in BT474 cells", "type": "cell-based", "protocol": "(§1) After wash with cold DPBS buffer, cells were lysed in RIPA buffer that contained 50 mM Tris-HCl pH 8.0, 150 mM NaCl, 1 mM EDTA, 1 mM EGTA, 1% NP-40, 0.5% sodium deoxycholate, 0.1% SDS, and protease and phosphatase inhibitor cocktails (Roche). Total protein concentrations were measured using a BCA assay (Thermo scientific). Cell lysate (about 80 μg protein) was resolved by SDS-PAGE and blotted onto PVDF membranes. The membranes were probed overnight at 4° C. with appropriate primary antibodies (Cell Signaling Technology) and incubated with secondary fluorescent antibodies (LI-COR Biosciences) for 1 hr at room temperature before imaging by an Odyssey CLx system."}, "PLK2": {"target": "PLK2 (Homo sapiens, UniProt Q9NYY3)", "sequence (Q9NYY3 whole entry)": "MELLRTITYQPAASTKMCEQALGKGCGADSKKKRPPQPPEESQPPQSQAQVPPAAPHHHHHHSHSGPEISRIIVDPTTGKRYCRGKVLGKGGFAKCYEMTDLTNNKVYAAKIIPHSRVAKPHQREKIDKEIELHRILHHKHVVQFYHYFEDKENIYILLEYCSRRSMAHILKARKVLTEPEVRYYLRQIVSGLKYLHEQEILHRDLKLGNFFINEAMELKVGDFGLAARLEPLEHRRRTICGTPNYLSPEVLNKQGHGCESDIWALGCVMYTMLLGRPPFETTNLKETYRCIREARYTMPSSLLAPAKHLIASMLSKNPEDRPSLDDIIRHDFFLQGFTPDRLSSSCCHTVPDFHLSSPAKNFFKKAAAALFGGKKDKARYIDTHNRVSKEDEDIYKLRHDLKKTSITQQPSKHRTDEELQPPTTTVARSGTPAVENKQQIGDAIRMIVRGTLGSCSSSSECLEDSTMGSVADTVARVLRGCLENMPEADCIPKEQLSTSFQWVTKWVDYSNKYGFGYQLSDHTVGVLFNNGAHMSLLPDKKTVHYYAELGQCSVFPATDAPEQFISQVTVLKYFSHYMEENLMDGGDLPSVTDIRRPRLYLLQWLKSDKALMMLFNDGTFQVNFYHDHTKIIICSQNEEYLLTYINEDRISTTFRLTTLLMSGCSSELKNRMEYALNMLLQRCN", "assay": "HotSpot protein kinase panel", "conditions": "read-out: PLK2 activity remaining", "description": "as §2"}, "MCF10A p53(−/−) cells [3]": {"tested_on": "MCF10A p53(−/−) cells", "assay": "Cell death upon serum withdrawal, trypan blue staining", "type": "cell-based", "protocol": "However, the difference is lost when EGF is added to the culture media. […] FIG. 17C: Cell death upon serum withdrawal is measured by trypan blue staining. p53(−/−) Cells are more susceptible to metabolic perturbations caused by glucose starvation."}, "PI4P5Kα": {"target": "PI4P5Kα (Homo sapiens, UniProt Q99755)", "sequence (Q99755 whole entry)": "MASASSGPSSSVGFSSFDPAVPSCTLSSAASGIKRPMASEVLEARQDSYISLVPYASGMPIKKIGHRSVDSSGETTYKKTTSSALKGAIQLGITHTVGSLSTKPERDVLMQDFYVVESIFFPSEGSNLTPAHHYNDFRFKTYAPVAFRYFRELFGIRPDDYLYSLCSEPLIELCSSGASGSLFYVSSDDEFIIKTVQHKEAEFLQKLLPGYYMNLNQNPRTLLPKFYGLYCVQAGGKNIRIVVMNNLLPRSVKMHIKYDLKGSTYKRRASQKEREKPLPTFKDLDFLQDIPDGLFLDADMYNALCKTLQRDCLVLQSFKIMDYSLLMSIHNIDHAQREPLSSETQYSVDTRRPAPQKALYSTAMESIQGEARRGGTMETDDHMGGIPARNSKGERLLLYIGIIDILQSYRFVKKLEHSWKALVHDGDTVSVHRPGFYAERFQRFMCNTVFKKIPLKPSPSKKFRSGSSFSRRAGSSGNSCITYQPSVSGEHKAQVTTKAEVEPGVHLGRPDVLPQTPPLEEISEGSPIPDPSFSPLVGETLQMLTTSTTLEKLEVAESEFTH", "assay": "Lipid kinase assay / panel (ADP-Glo)", "excerpt": "as §3"}, "mTOR/FRAP1": {"target": "mTOR/FRAP1 (Homo sapiens, UniProt P42345)", "assay": "In vitro kinase profiling", "type": "biochemical"}, "MCF7 cells": {"tested_on": "MCF7 cells", "assay": "Immunoblot analysis of AMPK activation in MCF7 cells", "type": "cell-based", "protocol": "as §1"}, "AMPK": {"tested_on": "AMPK", "assay": "Western blot of ACC phosphorylation by AMPK in myotubes (FIG. 3F)", "type": "cell-based", "protocol": "as §1"}, "BT474 cells [4]": {"tested_on": "BT474 cells", "assay": "Cell cycle analysis by flow cytometry", "type": "cell-based", "protocol": "To monitor cell cycle progression, cells were harvested by trypsinization, washed with DPBS, and fixed with cold 70% ethanol for 30 min at 4° C. Before analysis, 2×10^6 cells were washed with DPBS three times and treated with 100 μl 100 μg/ml ribonuclease (DNase-free; Sigma Aldrich) for 10 min at room temperature. Samples were then stained for total DNA using 400 μl DPBS containing 50 μg/ml propidium iodide (Invitrogen). Cell cycle distribution was analyzed by a BD LSR II flow cytometer."}}, "data": [{"smiles": "CN1C(=O)[C@@H](CC2CCCC2)N(C2CCCC2)c2nc(Nc3cc(Cl)c(O)c(Cl)c3)ncc21", "note": "[7a, (R)-8-cyclopentyl-7-(cyclopentylmethyl)-2-((3,5-dichloro-4-hydroxyphenyl)amino)-5-methyl-7,8-dihydropteridin-6(5H)-one]", "values": [{"measurement": "remaining activity at 0.5 µM", "setting": "NEK11", "result": 66, "unit": "%"}, {"measurement": "remaining activity at 0.5 µM", "setting": "Plk1", "result": 97, "unit": "%"}, {"measurement": "Ki", "setting": "RSK2", "result": "~1", "unit": "µM"}, {"measurement": "calculated RSK2 activity, % of DMSO control", "setting": "RSK2; calculated for 0.5 μM 7a and 20 μM ATP", "result": 79, "unit": "%"}, {"measurement": "ADP concentration", "setting": "C2Cl2 myotubes", "result": "unchanged"}, {"measurement": "reduction of intracellular ATP level", "setting": "C2Cl2 myotubes; bioluminescence assay or HPLC, compound overnight", "result": 15, "unit": "%"}, {"measurement": "increase in AMP concentration", "setting": "C2Cl2 myotubes; triple quadrupole LC-MS/MS", "result": 30, "unit": "%"}, {"measurement": "lactate accumulated in the media", "setting": "myotubes; 48 hours after treatment", "result": 7.7, "unit": "mM"}, {"measurement": "reduction of glucose concentration in the media", "setting": "myotubes; 48 hours after treatment", "result": 10.3, "unit": "mM"}, {"measurement": "increase in glucose consumption", "setting": "myotubes; after 2 days of cell culture", "result": 32, "unit": "%"}, {"measurement": "increase in lactate secretion", "setting": "myotubes; after 2 days of cell culture", "result": 45, "unit": "%"}, {"measurement": "rate of glucose uptake (labeled 2-deoxyglucose)", "setting": "L6 myotubes", "result": "doubled"}, {"measurement": "residual growth of p53(−/−) cells under EGFR inhibition", "setting": "MCF10A p53(−/−) cells [1]; 10 μM 7a", "result": "eliminated"}, {"measurement": "sensitivity of growth of p53(−/−) vs p53(+/+) cells", "setting": "MCF10A p53(−/−) cells [1]; without EGF supplement", "result": "more sensitive"}, {"measurement": "Ki", "setting": "PI3Kδ", "result": "~0.12", "unit": "µM"}, {"measurement": "inhibition of Vps34", "setting": "Vps34", "result": "not inhibited"}, {"measurement": "remaining activity at 0.5 µM", "setting": "TNIK", "result": 73, "unit": "%"}, {"measurement": "remaining activity at 0.5 µM", "setting": "EIF2AK3", "result": 50, "unit": "%"}, {"measurement": "p38 phosphorylation", "setting": "BT474 cells [2]; 20 μM", "result": "increased"}, {"measurement": "levels of cell-cycle inhibitors p21 and p27", "setting": "BT474 cells [2]; BT474", "result": "increased levels"}, {"measurement": "mTORC1 activity (S6K phosphorylation)", "setting": "BT474 cells [2]; BT474", "result": "less S6K phosphorylation"}, {"measurement": "AMPK activation (phosphorylation of ACC and raptor)", "setting": "BT474 cells [2]; BT474, 0, 10 and 20 μM", "result": "activated"}, {"measurement": "AMPK activation", "setting": "BT474 cells [2]; BT474, absence of serum", "result": "caused AMPK activation"}, {"measurement": "AMPK activation", "setting": "BT474 cells [2]; BT474, with serum, 32° C.", "result": "no longer caused AMPK activation"}, {"measurement": "AMPK activation", "setting": "BT474 cells [2]; BT474, with serum, 37° C.", "result": "activated"}, {"measurement": "remaining activity at 0.5 µM", "setting": "PLK2", "result": 75, "unit": "%"}, {"measurement": "cell death", "setting": "MCF10A p53(−/−) cells [3]", "result": "selectively kills p53(−/−) cells"}, {"measurement": "Ki", "setting": "PI4P5Kα", "result": "~5", "unit": "µM"}, {"measurement": "remaining activity at 0.5 µM", "setting": "PI4P5Kα; read-out: PI4P5Kα activity remaining", "result": 95, "unit": "%"}, {"measurement": "inhibition of mTOR/FRAP1 in vitro", "setting": "mTOR/FRAP1", "result": "did not inhibit"}, {"measurement": "AMPK activation", "setting": "MCF7 cells; MCF7, absence of serum", "result": "caused AMPK activation"}, {"measurement": "AMPK activation", "setting": "MCF7 cells; MCF7, with serum", "result": "no longer caused AMPK activation"}, {"measurement": "ACC phosphorylation / AMPK activation", "setting": "AMPK", "result": "activated"}, {"measurement": "cell cycle distribution", "setting": "BT474 cells [4]", "result": "accumulation of cells in the G0/G1 phase"}]}]}
